Counter-ions that a name gives are not always drawn.
What was measured:
[1] = Pharmacokinetic study of transdermal drug delivery in rats (granisetron hydrogel patch with or without ViaDerm); type: in vivo, Male Sprague-Dawley rats; conditions: 3% granisetron HCl hydrogel patch
Method: Male Sprague-Dawley rats (400-500 g, Harlan Laboratories Ltd., Jerusalem, Israel) were anesthetized (5 mg/kg ketamine i.p.) and were placed dorsally. Anesthesia was maintained until the end of the transdermal treatment and during blood sampling by injections of 0.1 ml ketamine and Xyalzine (60-80 mg/ml) every 30-40 min. The abdominal skin was shaved and cleaned with isopropyl alcohol. After 30 minutes, the transepidermal water loss was measured in order to verify skin integrity and RF-micro-channeling took place on the abdominal skin of a test group. […] A granisetron patch, made of a solution of 3% granisetron HCl soaked in a hydrogel sheet of 1.4 cm , was then attached to the skin surface for 24 hr in special containers glued to the skin by silicon medical glue. Blood samples were taken from the heart into heparinized tubes. After centrifugation, plasma samples were kept at −20° C. until analyzed for drug levels by HPLC.
The procedure was basically performed according to Kudoh et al, J. Chromatography 660(1994) p. 205. Phosphate buffer (500 μl, pH 7, 67 mM) was mixed with one ml plasma. […] Aliquots (30 μl) from each sample were injected into the HPLC (1050 HP), equipped with a pre-packed C8 column (BDS-Hypersil, UK; C-8 100×3.0 mm, 3 μm), an auto-sampler, and a fluorescence detector (Model 1046A). Granisetron was detected by excitation at 305 nm and emission at 365 nm. […]

[2] = Clinical patch-size study with granisetron patches and ViaDerm (plasma levels, erythema/edema)
Source text: The purpose of the first phase study was to determine patch size per drug dose. The target population for the study was healthy male and female volunteers who signed informed consent and fulfilled the following inclusion criteria: • 1. Are capable of understanding and signing an informed consent • 2. Are between the ages of 18 and 60 years • 3. Are medically stable • 4. Have fair skin color that enable to observe erythema and/or edema. • 5. Have two hands with no obvious marks, bruises, cuts, and abrasions on the back of the hand. • 6. Hemoglobin more than 12 gm % in females and more than 14 gm % in males.
Granisetron HCl patches were applied on the skin of the upper arm and fore arm of healthy adult volunteers. […] Irritation was examined by monitoring edema and erythema as described in Example 6. […]
ViaDerm performance was assessed by a study conducted with twenty healthy, adult volunteers, 10 males and 10 females. […] Measuring Transdermal Water Loss (TEWL) at a skin site treated with ViaDerm in comparison to an adjacent untreated skin assessed formation of micro-channels. Safety of ViaDerm was evaluated by measuring irritation (erythema and edema) at the treatment site using a scale of zero to eight in accordance with Draize irritation index (Table 4). The response to irritation induced by ViaDern was assessed by a Cumulative Irritation Index (Table 5). […]

[3] = Clinical bioavailability study with granisetron patches and ViaDerm versus oral delivery (plasma levels, irritation); conditions: human, 1 tablet of 1 mg twice daily, reached only for short time periods, unsteady profile
Method: Granisetron HCl patches were applied on the skin of the upper arm and fore arm of healthy adult volunteers. […] Irritation was examined by monitoring edema and erythema as described in Example 6.
The experiment was conducted with six subjects, in a crossover manner. Each subject received four different treatments, i.e. various administration methods at various sites of patch application, with at least six days washout period between treatments.
ViaDerm performance was assessed by a study conducted with twenty healthy, adult volunteers, 10 males and 10 females. […] Each subject received 10 treatments, in a randomized manner such that a given treatment was applied to different subjects and/or in each subject at different sites. • Treatment protocol. The treatment sites were the inner arm and hand. […] Measuring Transdermal Water Loss (TEWL) at a skin site treated with ViaDerm in comparison to an adjacent untreated skin assessed formation of micro-channels. […]

- granisetron plasma level (peak) ([1]; rats not treated with ViaDerm, peak at 2.5 hours after application): lower than 50 ng/ml
- granisetron plasma level ([1]; rats pretreated with ViaDerm, reached during first 12 hours, maintained for additional 12 hours): above 200 ng/ml
- maximal plasma concentration ([2]; human, ViaDerm + granisetron patch (3% drug) covering 5.6 cm^2, applied 24 hours): above 4 ng/ml
Structure (SMILES): CN1C2CCCC1CC(NC(=O)c1nn(C)c3ccccc13)C2 (centres unmarked) [granisetron, granisetron hydrochloride]
- maximal concentration of granisetron in human plasma versus patch size ([2]; ViaDerm + patches of 2.8, 5.6 and 8.4 cm^2): linearly correlated with the size of patch
- plasma levels of granisetron [3]: above 4 ng/ml

Source: patent US7415306B2, “Transdermal delivery system for anti-emetic medication” (TransPharma Medical Ltd., priority 2002, dated 2008)
